We go through 3 compounds from US8530653B2, “Enzyme inhibiting compounds” (Chelsea Therapeutics, Inc., priority 2009, dated 2013).

Broadly, the IC50 is the point on the concentration scale where inhibition reaches its midpoint.

The assay has as its target T1, human dihydrofolate reductase (DHFR) (Homo sapiens, UniProt P00374).
T1 sequence (P00374 1-187): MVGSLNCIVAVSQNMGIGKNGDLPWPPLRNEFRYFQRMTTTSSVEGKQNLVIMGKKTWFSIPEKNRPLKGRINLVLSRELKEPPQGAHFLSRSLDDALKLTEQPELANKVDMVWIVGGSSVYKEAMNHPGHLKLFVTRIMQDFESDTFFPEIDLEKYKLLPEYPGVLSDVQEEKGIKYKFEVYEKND
Kind of assay: Inhibition of human DHFR (spectrophotometric, decrease in absorbance at 340 nm). The format is biochemical. As to conditions: recombinant human DHFR 0.2 μg/mL, 0.1 mM dihydrofolate, 0.1 mM NADPH, pH 7.3, 37° C., 1% DMSO, triplicate. The method, then: The activity of multiple compounds as inhibitors of human dihydrofolate reductase (DHFR) was evaluated. The dry test compounds were dissolved in 100% DMSO at a concentration of 10 mM. For the test assays, the compounds were serially diluted in 100% DMSO and added to the assays so that the final concentration of DMSO in the assays was 1%.
The final assay conditions for the human DHFR assays were: […] KPO4 (pH7.3), 250 mM KCl, 0.1 mM dihydrofolate, 0.1 mM NADPH, 1% DMSO, and 0.2 μg/mL recombinant human DHFR. The final volume of the assay was 800 μL in a semi-micro cuvet.
A decrease in absorbance at 340 nm was monitored for three minutes in a Cary spectrophotometer at 37° C. The concentrations used for each compound across a range of 10,000 to 0.08 nM, depending on the expected level of activity. The assays were done in triplicate for each compound. […] A minimum of seven concentrations were used to generate a curve, and IC50 values were calculated using the Standard Curve Analysis of Sigma Plot Enzyme Kinetics software.
As to `C=C(CC(NC(=O)c1ccc(CCc2ccc3nc(N)nc(N)c3c2)cc1)C(=O)O)C(=O)O` (stereo not drawn) [Comparative, 2-{4-[2-(2,4-diamino-quinazolin-6-yl)-ethyl]-benzoylamino}-4-methylidene-pentanedioic acid, reference compound], the IC50 was found to be 5.4 nM. The value for `Nc1nc(N)c2cc(CCc3ccc(C(=O)NCC[C@@H](O)C[C@@H](O)CC(=O)O)cc3)ccc2n1` [Inventive 1] was 8.65 nM; that for `Nc1nc(N)c2cc(CCc3ccc(CNCC[C@@H](O)C[C@@H](O)CC(=O)O)cc3)ccc2n1` [Inventive 2] was 670 nM.
